Data from PubChem BioAssay AID977618 (Broad Institute, 2014).
Where “and” joins values, the source holds several entries; their conditions need not be identical. Identical values can stand only once. Calls of active or inactive are those of the source.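 How the source made its calls: active means compounds lowering the cell ATP signal with fitted AC50 at most twice the top tested dose; inconclusive means flat fit between -70 and -30, or a poor fit; inactive means the rest.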

Legend:
[1] = HEK293T cell cytotoxicity, dose response, cytotoxicity control, CellTiter-Glo luminescence, dry powder, set 16 (AID 977618); details: HEK293T viability, CellTiter-Glo ATP luminescence, 72 h; at 30 µM (top of the series)
[2] = tested on: HEK293T viability, CellTiter-Glo ATP luminescence, 72 h; test: as above

Structure (SMILES)	activity change, negative = cytotoxicity [1]	AC50 [2]
CN(C)S(=O)(=O)c1ccc(N2CCCC2)c(C(=O)Nc2cccnc2)c1	3.26% (inactive)	–
Cc1cnc(NC(=O)c2cc(S(=O)(=O)N(C)C)ccc2C2CCCC2)s1	-1.05% (inactive)	–
Cc1csc(NC(=O)c2cc(S(=O)(=O)N(C)C)ccc2N2CCCC2)n1	-4.9% (inactive)	–
Cc1cnc(NC(=O)c2cc(S(=O)(=O)N(C)C)ccc2N(C)C)s1	-10% (inactive)	–
CCN(CC)S(=O)(=O)c1ccc(N2CCCC2)c(C(=O)Nc2ncc(C)s2)c1	-2.95% (inactive)	–
Cc1cnc(NC(=O)c2cc(S(=O)(=O)N3CCCC3)ccc2N2CCCC2)s1	16.8% (inactive)	–
COc1ccc2nc(NC(=O)c3cc(S(=O)(=O)N(C)C)ccc3N3CCCC3)sc2c1	-3.18% (inactive)	–
Cc1nc(NC(=O)c2cc(S(=O)(=O)N(C)C)ccc2N2CCCC2)n[nH]1	-1.85% (inactive)	–
CN(C)S(=O)(=O)c1ccc(N2CCCC2)c(C(=O)Nc2ccccc2)c1	-5.37% (inactive)	–
CCN(CC)c1ccc(S(=O)(=O)N(C)C)cc1C(=O)Nc1ncc(C)s1	-18.6% (inactive)	–
Cc1cnc(NC(=O)c2cccc(S(=O)(=O)N(C)C)c2)s1	-1.48% (inactive)	–
CN(C)S(=O)(=O)c1ccc(N2CCCC2)c(C(=O)N2CCOCC2)c1	-15.1% (inactive)	–
COc1cccc2sc(NC(=O)c3cc(S(=O)(=O)N(C)C)ccc3N3CCCC3)nc12	-4.26% (inactive)	–
CN(C)S(=O)(=O)c1ccc(N2CCCC2)c(C(=O)Nc2ccncc2)c1	-8.58% (inactive)	–
CN(C)CCCN(Cc1cc2ccccc2[nH]c1=O)C(=O)Nc1ccccc1	-4.05% (inactive)	–
Cc1ccc(NC(=O)c2cc(S(=O)(=O)N(C)C)ccc2N2CCCC2)cc1	-11.3% (inactive)	–
Cc1cnc(NC(=O)c2cc(S(=O)(=O)N3CCCCC3)ccc2N2CCCC2)s1	1.32% (inactive)	–
Cc1cnc(NC(=O)c2cc(S(=O)(=O)N(C)C)ccc2N2CCNCC2)s1	-1.97% (inactive)	–
Cc1cnc(NC(=O)c2cc(S(=O)(=O)N(C)C)ccc2N2CCCC2)s1	8.71% (inactive) and 10.8% (inactive)	–
Cc1cnc(NC(=O)c2cc(S(=O)(=O)N3CCOCC3)ccc2N2CCCC2)s1	9.35% (inactive)	–

Structure (SMILES)	activity change, negative = cytotoxicity [1]	AC50 [2]
CN(C)S(=O)(=O)c1ccc(N2CCCC2)c(C(=O)Nc2ccccc2F)c1	-17.6% (inactive)	–
Cc1cnc(NC(=O)c2cc(S(=O)(=O)N(C)C)ccc2N2CCCCC2)s1	-9.94% (inactive)	–
CN(C)S(=O)(=O)c1ccc(N2CCCC2)c(C(=O)Nc2nc3ccccc3s2)c1	8.82% (inactive)	–
COc1ccc(NC(=O)c2cc(S(=O)(=O)N(C)C)ccc2N2CCCC2)cc1	-3.02% (inactive)	–
Cc1cnc(NC(=O)c2cc(S(=O)(=O)N3CCNCC3)ccc2N2CCCC2)s1	-12.1% (inactive)	–
COc1ccccc1NC(=O)c1cc(S(=O)(=O)N(C)C)ccc1N1CCCC1	-2.97% (inactive)	–
CN(C)S(=O)(=O)c1ccc(N2CCCC2)c(C(=O)NC2CCCCC2)c1	-11.1% (inactive)	–
CN(C)S(=O)(=O)c1ccc(N2CCCC2)c(C(=O)Nc2ccc(Br)cc2)c1	-1.97% (inactive)	–
Cc1cnc(NC(=O)c2cc(S(=O)(=O)N(CC(C)C)CC(C)C)ccc2N2CCCC2)s1	–	> 60 µM (inactive)
Cc1cnc(NC(=O)c2cc(S(=O)(=O)N(C)C)ccc2N2CCC2)s1	-5.02% (inactive)	–
CN(C)CCCN(Cc1cc2ccccc2[nH]c1=O)C(=O)NCc1ccccc1	-7.51% (inactive)	–
Cc1cnc(NC(=O)c2cc(S(=O)(=O)N(C)c3ccccc3)ccc2N2CCCC2)s1	1.78% (inactive)	–
COc1ccc2sc(NC(=O)c3cc(S(=O)(=O)N(C)C)ccc3N3CCCC3)nc2c1	1.94% (inactive)	–
CN(C)S(=O)(=O)c1ccc(N2CCCC2)c(C(=O)Nc2cccc(F)c2)c1	-5.2% (inactive)	–
CN(C)S(=O)(=O)c1ccc(N2CCCC2)c(C(=O)Nc2nccs2)c1	-6.06% (inactive)	–
Cc1ccccc1NC(=O)c1cc(S(=O)(=O)N(C)C)ccc1N1CCCC1	-9.68% (inactive)	–
Cc1nnc(NC(=O)c2cc(S(=O)(=O)N(C)C)ccc2N2CCCC2)s1	-7.43% (inactive)	–
CN(C)S(=O)(=O)c1ccc(N2CCCC2)c(C(=O)Nc2ccccc2Cl)c1	-6.21% (inactive)	–
CN(C)C(=O)c1cc(S(=O)(=O)N(C)C)ccc1N1CCCC1	0.495% (inactive)	–
Cc1cnc(NC(=O)c2cc(S(=O)(=O)NCc3ccccc3)ccc2N2CCCC2)s1	-10.3% (inactive)	–
